{
  "source": "patent US10166267B1",
  "about": "“Multi-component formulations for the treatment of cognitive decline including Alzheimer's disease” (priority 2010, dated 2019)",
  "key": {"[1]": {"tested_on": "primary chicken neurons", "test": "MTT cell viability assay on primary chicken neurons, components applied for forty-eight hours", "type": "cell-based", "conditions": "for effect on cell viability: 48 h", "experimental": "Further tests were conducted to assess the neuroprotective effects of a number of the components previously disclosed herein at various concentrations on primary chicken neurons, individually and in select combinations. The study components were applied to test specimens obtained on embryonic day 8 in vitro (“DIV8”) for a period of forty-eight hours, after which, the test specimens were evaluated in accordance with MTT assay to determine cell viability.\nOne day old fertilized eggs were stored under appropriate conditions until the start of breeding. On embryonic day zero, eggs were transferred to a breeding incubator and maintained under turning at 37.8° C. and 55% humidity until embryonic day eight.\nAll cell culture experiments were carried out under sterile conditions and all procedures were performed in a cell culture unit with special cell culture equipment. Glassware, forceps ad/or scissors were sterilized prior to experiments. Stock chemical solutions were obtained sterile, and final solution and culture medium were prepared fresh in a laminar airflow cabinet.\nNeurons were prepared as follows. DIV8 embryos were transferred to plastic dish and decapitated. Bother hemispheres were removed, collected, and cleaned from any loose tissue. Hemispheres were then mechanically disassociated and 4.8×10^4 cells per well in a 96-well plate, and each well was seeded with 160 μL.\nThe cell culture medium for chicken telencephalon neurons consists of DMEM with 4.5 grams glucose, 5% Nu Serum, 0.01% gentamycin, and 2 mM L-glutamine. Cultures are maintained at 37° C., 95% humidity and 5% CO2.\nThe study component(s) and vehicle controls (“VC”) were applied to chicken neurons at DIVE for forty-eight hours. The viability of the chicken neurons at DIV10 were determined according to an MTT cell viability assay.\nMTT Cell Viability Assay: The viability of the chicken neurons were determined by MTT assay using a plate reader at 570 nanometers as described in SOP MET004. The assay measures the mitochondrial dehydrogenase activity which reduces yellow MTT to dark blue formazan crystals. As the reaction is catalyzed only in living cells, the assay is used to determine cell viability. MTT is added to each well at a concentration of 0.5 milligrams per milliliter. After two hours, the MTT containing medium is aspirated. Cells are lysed in 3% SDS and the formazan crystals are dissolved in isopropanol/hydrochloric acid. Optical density is measured with a plate-reader at a wavelength of 570 nanometers.\nCell survival rate is expressed as optical density, and values are calculated as a percentage of the vehicle control values, the vehicle control being 100%."}, "[2]": {"conditions": "cited from earlier work"}},
  "data": [
    {"smiles": "COc1cc(/C=C/C(=O)CC(=O)/C=C/c2ccc(O)c(OC)c2)ccc1O", "note": "[Curcumin, curcumin]", "values": [
      {"measurement": "protective effects, curcumin alone vs in combination with MSM/FDP", "setting": "[1]; Part 3, curcumin applied alone", "result": "protective effects only in combinations with MSM/FDP but not when applied alone"},
      {"measurement": "effect on cell viability", "setting": "[1]; curcumin 50, 20, 10 and 5 μM, vs vehicle", "result": "negative effects on cell viability"},
      {"measurement": "effect on cell viability", "setting": "[1]; curcumin lowest concentration 0.01 μM, vs vehicle", "result": "positive influence on cell viability"}
    ]},
    {"smiles": "C[S+](C)[O-]", "note": "[DMSO, Dimethyl sulfoxide]", "values": [
      {"measurement": "DMSO converted to MSM in the body", "setting": "[2]", "result": "approximately 15%"},
      {"measurement": "effect on cell viability", "setting": "[1]; DMSO 5%, vs vehicle treated cells", "result": "toxic effects"},
      {"measurement": "effect on cell viability", "setting": "[1]; DMSO, all other concentrations tested, vs vehicle treated cells", "result": "minor negative effect on cell viability"}
    ]},
    {"smiles": "O=C(COP(=O)(O)O)[C@@H](O)[C@H](O)[C@H](O)COP(=O)(O)O", "note": "[FDP, Fructose 1,6-diphosphate]", "values": [
      {"measurement": "effect on cell viability", "setting": "[1]; FDP highest concentrations 50, 10 and 5 mM", "result": "toxic effects"},
      {"measurement": "effect on cell viability", "setting": "[1]; FDP, other applied concentrations", "result": "no significant effects"}
    ]},
    {"smiles": "CS(C)(=O)=O", "note": "[MSM, Methylsulfonylmethane]", "values": [
      {"measurement": "concentration of MSM relative to DMSO achieving the same effects on cell viability", "setting": "[1]; MSM 0.1 μM vs DMSO 12.8 μM in combinations", "result": 128, "unit": "times less concentrated"},
      {"measurement": "effects on cell viability in the combinations, MSM vs DMSO", "setting": "[1]; MSM 0.0001 mM = 0.1 μM vs DMSO 12.8 μM = 0.0001%", "result": "same effects on cell viability"},
      {"measurement": "effect on cell viability", "setting": "[1]; MSM highest concentration 50 mM", "result": "minor negative effect"},
      {"measurement": "tolerance by cells when applied alone", "setting": "[1]; MSM vs DMSO, each applied alone", "result": "tolerated MSM better than DMSO"},
      {"measurement": "effect on cell viability", "setting": "[1]; MSM, all other applied concentrations, increase seen at 1 and 0.01 mM", "result": "no or even a slight increase in cell viability"}
    ]},
    {"smiles": "Oc1ccc(C=Cc2cc(O)cc(O)c2)cc1", "note": "[Resveratrol, resveratrol]", "values": [
      {"measurement": "effect on cell viability", "setting": "[1]; resveratrol 20, 10 and 5 μM, vs vehicle", "result": "positive effects on cell viability"},
      {"measurement": "effect on cell viability", "setting": "[1]; resveratrol 50 and 100 μM, vs vehicle", "result": "toxic to cells"},
      {"measurement": "cell viability compared to resveratrol (20 μM) plus DMSO/FDP", "setting": "[1]; resveratrol alone 20 μM", "result": "even better effects on cell viability"}
    ]}
  ]
}
